Reference: US11419918B2, “Treatment of biliary cirrhosis based on oxyntomodulin analogue GLP-1R/GCGR dual-target agonist peptide” (Shenzhen Turier Biotech Co., Ltd., priority 2017, dated 2022)
Numbered stars: 1 amine (or outer) side, 2 acyl side, 3 side chain; on linkers, the order of the positions; unused ones are H or OH. Square brackets hold non-standard residues; d marks the D form. Primed or numbered codes have the meaning given here. Side chains are listed from the residue outwards. Ends that are not written are not given here. * marks the point of attachment. C18 diacid = O=C(O)CCCCCCCCCCCCCCCCC(=O)*; C16 diacid = O=C(O)CCCCCCCCCCCCCCC(=O)*; γGlu = O=C(O)[C@H](CCC(=O)[*:2])N[*:1]; Stearoyl = CCCCCCCCCCCCCCCCCC(=O)*; Palmitoyl = CCCCCCCCCCCCCCCC(=O)*; Nle = CCCC[C@H](N)C(=O)O; PEG2′ = not defined here; Aib = CC(C)(N)C(=O)O

Tested on: human hepatic stellate cells (LX-2)
Assay: In vitro inhibition of hepatic fibrosis: expression of activation marker α-SMA in LX-2 cells (Western Blot, β-actin internal reference)
Format: cell-based
Conditions: 10.0 μM, 48 hours, negative control (PBS) = 100%
Method: Hepatic stellate cell strain LX-2 was selected to study and observe the effect of different doses of test substances on the expression of LX-2 cell activation marker α-SMA. Hepatic stellate cell LX-2 was laid on 35 mm cell culture plate, cultured with DMEM (high glucose)+10% FBS+1% double-antibody culture medium (Thermo Fisher), placed overnight when the cells grew to 70% convergence at 37° C. and under the condition of 5% CO2, and treated with the above GLP-1R/GCGR dual target agonist polypeptides 1-48 (dissolved in PBS) for 48 hours the next day morning to extract cell protein, carry out Western Blot, and take β-actin as internal reference and analyze the expression quantities of α-SMA and β-actin by a gray level of Image J 1.50i. PBS with the same volume as that in experimental group was added in negative control. […] The integrating gray level of α-SMA/β-actin in the negative control group was 100% to analyze the in vitro inhibition activity of hepatic fibrosis of tested polypeptide.

| Substance | Relative expression of α-SMA (α-SMA/β-actin, %) [%] |
| --- | --- |
| His-(D-Ser)-Gln-Gly-Thr-Phe-Thr-Ser-Asp-Lys(PEG2-PEG2-CO(CH2)14CH3)-Ser-Lys-Tyr-Leu-Asp-Aib-Arg-Arg-Ala-Gln-Asp-Phe-Val-Gln-Trp-Leu-Met-Asn-Thr-Gly-Gly-Pro-Ser-Ser-Gly-Ala-Pro-Pro-Pro-Ser-NH2 (H[dS]QGTFTSDK([PEG2′-PEG2′-Palmitoyl])SKYLD[Aib]RRAQDFVQWLMNTGGPSSGAPPPS-NH2) [Compound 31] | 36.89 |
| His-(D-Ser)-Gln-Gly-Thr-Phe-Thr-Ser-Asp-Lys(PEG2-PEG2-CO(CH2)14CH3)-Ser-Lys-Tyr-Leu-Asp-Aib-Arg-Arg-Ala-Gln-Asp-Phe-Val-Gln-Trp-Leu-Nle-Asn-Thr-Gly-Gly-Pro-Ser-Ser-Gly-Ala-Pro-Pro-Pro-Ser-NH2 (H[dS]QGTFTSDK([PEG2′-PEG2′-Palmitoyl])SKYLD[Aib]RRAQDFVQWL[Nle]NTGGPSSGAPPPS-NH2) [Compound 45] | 32.22 |
| His-(D-Ser)-Gln-Gly-Thr-Phe-Thr-Ser-Asp-Lys(PEG2-PEG2-CO(CH2)16CH3)-Ser-Lys-Tyr-Leu-Asp-Aib-Arg-Arg-Ala-Gln-Asp-Phe-Val-Gln-Trp-Leu-Met-Asn-Thr-Gly-Gly-Pro-Ser-Ser-Gly-Ala-Pro-Pro-Pro-Ser-NH2 (H[dS]QGTFTSDK([PEG2′-PEG2′-Stearoyl])SKYLD[Aib]RRAQDFVQWLMNTGGPSSGAPPPS-NH2) [Compound 32] | 37.14 |
| His-(D-Ser)-Gln-Gly-Thr-Phe-Thr-Ser-Asp-Lys(PEG2-PEG2-CO(CH2)16CO2H)-Ser-Lys-Tyr-Leu-Asp-Aib-Arg-Arg-Ala-Gln-Asp-Phe-Val-Gln-Trp-Leu-Met-Asn-Thr-Gly-Gly-Pro-Ser-Ser-Gly-Ala-Pro-Pro-Pro-Ser-NH2 (H[dS]QGTFTSDK([PEG2′-PEG2′-C18 diacid])SKYLD[Aib]RRAQDFVQWLMNTGGPSSGAPPPS-NH2) [Compound 30] | 55.53 |
| His-(D-Ser)-Gln-Gly-Thr-Phe-Thr-Ser-Asp-Lys(PEG2-PEG2-γGlu-CO(CH2)14CH3)-Ser-Lys-Tyr-Leu-Asp-Aib-Arg-Arg-Ala-Gln-Asp-Phe-Val-Gln-Trp-Leu-Leu-Asn-Thr-Gly-Gly-Pro-Ser-Ser-Gly-Ala-Pro-Pro-Pro-Ser-NH2 (H[dS]QGTFTSDK([PEG2′-PEG2′-γGlu-Palmitoyl])SKYLD[Aib]RRAQDFVQWLLNTGGPSSGAPPPS-NH2) [Compound 43] | 42.34 |
| His-(D-Ser)-Gln-Gly-Thr-Phe-Thr-Ser-Asp-Lys(PEG2-PEG2-γGlu-CO(CH2)16CO2H)-Ser-Lys-Tyr-Leu-Asp-Aib-Arg-Arg-Ala-Gln-Asp-Phe-Val-Gln-Trp-Leu-Leu-Asn-Thr-Gly-Gly-Pro-Ser-Ser-Gly-Ala-Pro-Pro-Pro-Ser-NH2 (H[dS]QGTFTSDK([PEG2′-PEG2′-γGlu-C18 diacid])SKYLD[Aib]RRAQDFVQWLLNTGGPSSGAPPPS-NH2) [Compound 47] | 40.36 |
| His-(D-Ser)-Gln-Gly-Thr-Phe-Thr-Ser-Asp-Lys(PEG2-PEG2-γGlu-CO(CH2)16CO2H)-Ser-Lys-Tyr-Leu-Asp-Aib-Arg-Arg-Ala-Gln-Asp-Phe-Val-Gln-Trp-Leu-Nle-Asn-Thr-Gly-Gly-Pro-Ser-Ser-Gly-Ala-Pro-Pro-Pro-Ser-NH2 (H[dS]QGTFTSDK([PEG2′-PEG2′-γGlu-C18 diacid])SKYLD[Aib]RRAQDFVQWL[Nle]NTGGPSSGAPPPS-NH2) [Compound 48] | 43.25 |
| His-(D-Ser)-Gln-Gly-Thr-Phe-Thr-Ser-Asp-Lys(PEG)-PEG2-γGlu-CO(CH2)14CH3)-Ser-Lys-Tyr-Leu-Asp-Aib-Arg-Arg-Ala-Gln-Asp-Phe-Val-Gln-Trp-Leu-Met-Asn-Thr-Gly-Gly-Pro-Ser-Ser-Gly-Ala-Pro-Pro-Pro-Ser-NH2 (H[dS]QGTFTSDKSKYLD[Aib]RRAQDFVQWLMNTGGPSSGAPPPS-NH2; not fully specified (residue 10); printed as His-(D-Ser)-Gln-Gly-Thr-Phe-Thr-Ser-Asp-Lys(PEG2-PEG2-γGln-CO(CH2)14CH3)-Ser-Lys-Tyr-Leu-Asp-Aib-Arg-Arg-Ala-Gln-Asp-Phe-Val-Gln-Trp-Leu-Met-Asn-Thr-Gly-Gly-Pro-Ser-Ser-Gly-Ala-Pro-Pro-Pro-Ser-NH2; also: first PEG unit on Lys10 of unstated size) [Compound 4] | 33.50 |
| His-(D-Ser)-Gln-Gly-Thr-Phe-Thr-Ser-Asp-Lys(PEG)-PEG2-γGlu-CO(CH2)16CO2H)-Ser-Lys-Tyr-Leu-Asp-Aib-Arg-Arg-Ala-Gln-Asp-Phe-Val-Gln-Trp-Leu-Met-Asn-Thr-Gly-Gly-Pro-Ser-Ser-Gly-Ala-Pro-Pro-Pro-Ser-NH2 (H[dS]QGTFTSDKSKYLD[Aib]RRAQDFVQWLMNTGGPSSGAPPPS-NH2; not fully specified (residue 10); also: first PEG unit on Lys10 of unstated size) [Compound 5] | 36.04 |
| His-(D-Ser)-Gln-Gly-Thr-Phe-Thr-Ser-Asp-Tyr-Ser-Lys(PEG2-PEG2-CO(CH2)14CH3)-Lys-Leu-Asp-Aib-Arg-Arg-Ala-Gln-Asp-Phe-Val-Gln-Trp-Leu-Met-Asn-Thr-Gly-Gly-Pro-Ser-Ser-Gly-Ala-Pro-Pro-Pro-Ser-NH2 (H[dS]QGTFTSDYSK([PEG2′-PEG2′-Palmitoyl])KLD[Aib]RRAQDFVQWLMNTGGPSSGAPPPS-NH2) [Compound 9] | 41.86 |
| His-(D-Ser)-Gln-Gly-Thr-Phe-Thr-Ser-Asp-Tyr-Ser-Lys(PEG2-PEG2-CO(CH2)16CO2H)-Lys-Leu-Asp-Aib-Arg-Arg-Ala-Gln-Asp-Phe-Val-Gln-Trp-Leu-Met-Asn-Thr-Gly-Gly-Pro-Ser-Ser-Gly-Ala-Pro-Pro-Pro-Ser-NH2 (H[dS]QGTFTSDYSK([PEG2′-PEG2′-C18 diacid])KLD[Aib]RRAQDFVQWLMNTGGPSSGAPPPS-NH2) [Compound 2] | 41.62 |
| His-(D-Ser)-Gln-Gly-Thr-Phe-Thr-Ser-Asp-Tyr-Ser-Lys(PEG2-PEG2-γGlu-CO(CH2)14CH3)-Lys-Leu-Asp-Aib-Arg-Arg-Ala-Gln-Asp-Phe-Val-Gln-Trp-Leu-Met-Asn-Thr-Gly-Gly-Pro-Ser-Ser-Gly-Ala-Pro-Pro-Pro-Ser-NH2 (H[dS]QGTFTSDYSK([PEG2′-PEG2′-γGlu-Palmitoyl])KLD[Aib]RRAQDFVQWLMNTGGPSSGAPPPS-NH2) [Compound 1] | 63.5 |
| His-(D-Ser)-Gln-Gly-Thr-Phe-Thr-Ser-Asp-Tyr-Ser-Lys-Tyr-Leu-Asp-Aib-Lys(PEG2-PEG2-γGlu-CO(CH2)14CH3)-Arg-Ala-Gln-Asp-Phe-Val-Gln-Trp-Leu-Met-Asn-Thr-Gly-Gly-Pro-Ser-Ser-Gly-Ala-Pro-Pro-Pro-Ser-NH2 (H[dS]QGTFTSDYSKYLD[Aib]K([PEG2′-PEG2′-γGlu-Palmitoyl])RAQDFVQWLMNTGGPSSGAPPPS-NH2) [Compound 33] | 35.45 |
| His-(D-Ser)-Gln-Gly-Thr-Phe-Thr-Ser-Asp-Tyr-Ser-Lys-Tyr-Leu-Asp-Glu-Lys-Ala-Ala-Lys(PEG2-PEG2-γGlu-CO(CH2)14CH3)-Glu-Phe-Ile-Glu-Trp-Leu-Leu-Arg-Ala-NH2 (H[dS]QGTFTSDYSKYLDEKAAK([PEG2′-PEG2′-γGlu-Palmitoyl])EFIEWLLRA-NH2) [Compound 23] | 45.91 |
| His-(D-Ser)-Gln-Gly-Thr-Phe-Thr-Ser-Asp-Tyr-Ser-Lys-Tyr-Leu-Asp-Glu-Lys-Ala-Ala-Lys(PEG2-PEG2-γGlu-CO(CH2)14CH3)-Glu-Phe-Ile-Glu-Trp-Leu-Leu-Asn-Gly-Gly-Pro-Ser-Ser-Gly-Ala-Pro-Pro-Pro-Ser-NH2 (H[dS]QGTFTSDYSKYLDEKAAK([PEG2′-PEG2′-γGlu-Palmitoyl])EFIEWLLNGGPSSGAPPPS-NH2) [Compound 29] | 49.36 |
| His-(D-Ser)-Gln-Gly-Thr-Phe-Thr-Ser-Asp-Tyr-Ser-Lys-Tyr-Leu-Asp-Glu-Lys-Ala-Ala-Lys(PEG2-PEG2-γGlu-CO(CH2)14CO2H)-Glu-Phe-Ile-Glu-Trp-Leu-Leu-Asn-Gly-Gly-Pro-Ser-Ser-Gly-Ala-Pro-Pro-Pro-Ser-NH2 (H[dS]QGTFTSDYSKYLDEKAAK([PEG2′-PEG2′-γGlu-C16 diacid])EFIEWLLNGGPSSGAPPPS-NH2) [Compound 27] | 32.34 |
| His-(D-Ser)-Gln-Gly-Thr-Phe-Thr-Ser-Asp-Tyr-Ser-Lys-Tyr-Leu-Asp-Glu-Lys-Ala-Ala-Lys(PEG2-PEG2-γGlu-CO(CH2)16CH3)-Glu-Phe-Ile-Glu-Trp-Leu-Leu-Arg-Ala-NH2 (H[dS]QGTFTSDYSKYLDEKAAK([PEG2′-PEG2′-γGlu-Stearoyl])EFIEWLLRA-NH2) [Compound 24] | 32.42 |
| His-(D-Ser)-Gln-Gly-Thr-Phe-Thr-Ser-Asp-Tyr-Ser-Lys-Tyr-Leu-Asp-Glu-Lys-Ala-Ala-Lys(PEG2-PEG2-γGlu-CO(CH2)16CH3)-Glu-Phe-Ile-Glu-Trp-Leu-Leu-Asn-Gly-Gly-Pro-Ser-Ser-Gly-Ala-Pro-Pro-Pro-Ser-NH2 (H[dS]QGTFTSDYSKYLDEKAAK([PEG2′-PEG2′-γGlu-Stearoyl])EFIEWLLNGGPSSGAPPPS-NH2) [Compound 28] | 37.62 |
| His-(D-Ser)-Gln-Gly-Thr-Phe-Thr-Ser-Asp-Tyr-Ser-Lys-Tyr-Leu-Asp-Glu-Lys-Ala-Ala-Lys(PEG2-PEG2-γGlu-CO(CH2)16CO2H)-Glu-Phe-Ile-Glu-Trp-Leu-Leu-Arg-Ala-NH2 (H[dS]QGTFTSDYSKYLDEKAAK([PEG2′-PEG2′-γGlu-C18 diacid])EFIEWLLRA-NH2) [Compound 18] | 45.60 |
